Where two headings read alike, the source gives them in different places.
Target: T1, mTLR7 (Mus musculus, UniProt P58681)
T1 construct: Splenocytes isolated from male C57/BL6 mice; from tissue; host or cells: splenocytes from the spleen of male C57BL/6 mice
T1 sequence (P58681 27-1050): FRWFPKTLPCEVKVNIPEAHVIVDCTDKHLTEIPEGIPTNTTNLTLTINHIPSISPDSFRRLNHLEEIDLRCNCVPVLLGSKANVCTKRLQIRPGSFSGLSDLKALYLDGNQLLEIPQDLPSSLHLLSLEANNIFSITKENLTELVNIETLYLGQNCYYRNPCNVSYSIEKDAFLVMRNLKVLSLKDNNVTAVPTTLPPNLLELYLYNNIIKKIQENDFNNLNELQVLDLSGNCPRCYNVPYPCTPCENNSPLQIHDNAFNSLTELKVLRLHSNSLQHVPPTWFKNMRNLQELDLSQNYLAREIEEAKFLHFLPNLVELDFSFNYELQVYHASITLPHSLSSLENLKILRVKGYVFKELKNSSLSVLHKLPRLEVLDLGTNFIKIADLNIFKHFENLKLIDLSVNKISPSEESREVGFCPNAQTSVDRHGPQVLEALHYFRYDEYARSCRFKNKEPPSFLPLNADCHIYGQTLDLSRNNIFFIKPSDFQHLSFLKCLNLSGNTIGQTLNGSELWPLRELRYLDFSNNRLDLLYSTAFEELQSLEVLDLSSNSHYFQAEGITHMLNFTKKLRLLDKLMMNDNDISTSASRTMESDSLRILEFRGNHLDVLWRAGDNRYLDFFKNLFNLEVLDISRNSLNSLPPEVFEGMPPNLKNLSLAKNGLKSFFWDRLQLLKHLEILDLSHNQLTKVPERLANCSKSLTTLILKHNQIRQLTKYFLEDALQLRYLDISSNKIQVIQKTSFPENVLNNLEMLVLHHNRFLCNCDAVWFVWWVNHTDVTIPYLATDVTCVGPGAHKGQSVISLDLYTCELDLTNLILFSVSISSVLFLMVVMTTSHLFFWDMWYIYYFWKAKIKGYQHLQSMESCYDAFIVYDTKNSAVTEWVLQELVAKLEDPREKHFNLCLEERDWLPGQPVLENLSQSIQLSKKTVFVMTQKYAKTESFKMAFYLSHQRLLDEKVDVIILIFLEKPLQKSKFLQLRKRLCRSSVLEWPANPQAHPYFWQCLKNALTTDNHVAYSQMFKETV
Assay: mTLR7 antagonism (IL-6 and TNF-α release assay) in mouse splenocytes, R0006/DOTAP stimulated
Format: cell-based
Conditions: 1 μM, mouse splenocytes
Excerpt: mTLR9 and mTLR7 Antagonism (Cytokine Release Assay) in Mouse Splenocytes
TLR7 ligand R0006 (IDT, 5′-rU*rU*rG*rU*rU*rG*rU*rU*rG*rU*rU*rG*rU*rU*rG*rU*rU*rG*rU*rU-3′ (SEQ ID NO:1)), Liposomal transfection reagent—DOTAP (Roche, Cat. No. 11202375001), TLR9 ligand CpG ODN2006 (Sequence: T*C*G*T*C*G*T*T*T*T*G*T*C*G*T*T*T*T*G*T*C*G*T*T; *=phosphorothioate (SEQ ID NO:2)) DMSO (Sigma, D2650), RPMI Powder (Sigma, R6504), Fetal Bovine Serum (Gibco, 10270), Dulbecco's Phosphate Buffered Saline (Sigma, D1408), 96 well plate (Flat bottom, Costar 3599), ELISA kit for IL-6 (EBioscience, 88-7064-77 and TNFa (EBioscience, 88-7346-88), MACS Buffer (AutoMACS Rinsing Solution (Miltenyl Biotec, 130-091-222)+0.05% BSA), RBC lysis buffer (0.85% NH4Cl), 40 μm cell strainer (BD Falcon, 352340) Method: A. Isolation of Mouse Splenocytes
Mouse spleen was isolated from C57BL6 mouse and stored in 1× chilled PBS buffer until further processed. Spleen was transferred to a sterile petriplate and chopped in to 5-6 pieces in presence of MACS buffer (100 μl) with the help of fresh surgical blade and crushed with flat plunger of a sterile syringe. A uniform suspension was prepared by passing cells through a 40 μm cell strainer. Cells were centrifuged at 450×g for 5 minutes at 4° C., supernatant was discarded and pellet dislodged gently, resuspended in 2 ml of pre-warmed (37° C.) RBC lysis buffer at room temperature with continuous gentle mixing with 1 ml pipette. Lysis buffer was neutralized with 12 ml of chilled MACS buffer and cells were passed through 40 μm cell strainer. Cell suspension was collected in 15 ml MACS buffer and centrifuged at 450×g for 5 minutes at 4° C. Pellet was resuspended in 15 ml MACS buffer and centrifuged at 400×g for 5 minutes. Cells were resuspended in 10 ml of RPMI complete medium and viability was estimated by Trypan blue method.
mTLR7 Antagonism (IL-6 and TNF-α Release Assay):
1 mg/ml stock of R0006 was prepared in sterile, endotoxin-free water. R0006 stock was diluted 10 fold with DOTAP and incubated for 30 minutes to form liposome complex (100 μg/ml of R0006). This complex was further diluted 10 fold with incomplete RPMI media (10 μg/ml of R0006) to achieve the final agonist concentration of 1 μg/ml. DOTAP alone was diluted 10 fold in incomplete RPMI media. NCEs were added in a concentration range of 30 μM to 1 nM in respective wells of assay plate, assay medium containing 0.3% DMSO were added to control wells. 0.2 million splenocytes were added to all the wells and incubated at 37° C. in 5% CO2 incubator for 30 minutes. 1 μg/ml of respective agonist was added to all the wells except those were assigned as negative controls and mixed thoroughly. DOTAP was added to negative control wells and incubated overnight at 37° C./5% CO2. The plate was centrifuged at 450×g for 5 minutes at room temperature and the supernatant was collected. ELISA was performed as per manufacturer's protocol. S/B Ratio, % Activity and % Inhibition was calculated using MS Excel. IC50 and inhibition curve was generated using Graph Pad Prism.

[1] = IL-6 release, read-out: mTLR7 inhibitory activity (% at 1 μM), IL-6
[2] = TNF-α release, read-out: mTLR7 inhibitory activity (% at 1 μM), TNF-α

Row | Structure (SMILES) | inhibition at 1 µM [1] [%] | inhibition at 1 µM [2] [%]
1 | Cc1nc(-c2ccc(N3CCN(C(C)C)CC3)cc2)c2cc(CN3CCOCC3)[nH]c2c1C [Example A36, 4-[[4-[4-(4-isopropylpiperazin-1-yl)phenyl]-6,7-dimethyl-1H-pyrrolo[3,2-c]pyridin-2-yl]methyl] morpholine] | 100 | 99
2 | Cc1nc(-c2ccc(N3CCN(C)CC3)cc2)c2cc(CN3CCOCC3)[nH]c2c1C [Example A37, 4-[[6,7-dimethyl-4-[4-(4-methylpiperazin-1-yl)phenyl]-1H-pyrrolo[3,2-c]pyridin-2-yl]methyl] morpholine] | – | 100
3 | CCN1CCN(c2ccc(-c3nc(C)c(C)c4[nH]c(CN5CCOCC5)cc34)cc2)CC1 [Example A38, 4-[[4-[4-(4-ethylpiperazin-1-yl)phenyl]-6,7-dimethyl-1H-pyrrolo[3,2-c]pyridin-2-yl]methyl] morpholine] | 100 | 100
4 | Cc1nc(-c2ccc(N3CCN(C(C)C)CC3)cc2)c2cc(CN3CCCCC3)[nH]c2c1C [Example A39, 4-[4-(4-isopropylpiperazin-1-yl)phenyl]-6,7-dimethyl-2-(1-piperidylmethyl)-1H-pyrrolo[3,2-c]pyridine] | – | 100
5 | Cc1nc(-c2ccc(N3CCN(C(C)C)CC3)cc2)c2cc(CN3CCCC3)[nH]c2c1C [Example A40, 4-[4-(4-isopropylpiperazin-1-yl)phenyl]-6,7-dimethyl 2-(pyrrolidin-1-ylmethyl)-1H-pyrrolo[3,2-c)pyridine] | – | 100
6 | c1cc2[nH]c(CN3CCOCC3)cc2c(-c2ccc(N3CCNCC3)cc2)n1 [Example A42, 4-[[4-(4-(piperazin-1-yl)phenyl)-1H-pyrrolo[3,2-c]pyridin-2-yl]methyl] morpholine] | 34 | 9
7 | c1cc2[nH]c(CN3CCOCC3)cc2c(-c2ccc(OC3CCNCC3)cc2)n1 [Example A49, 4-[[4-[4-(4-piperidyloxy)phenyl]-1H-pyrrolo[3,2-c]pyridin-2-yl]methyl]morpholine] | 2 | 3
8 | Cc1cc2[nH]c(CN3CCOCC3)cc2c(-c2ccc(C3CCN(C(C)C)CC3)cc2)n1 [Example A51, 4-[[4-[4-(1-isopropyl-4-piperidyl)phenyl]-6-methyl-1H-pyrrolo[3,2-c]pyridin-2-yl]methyl]morpholine] | 100 | 96
9 | CC(C)N1CC=C(c2ccc(-c3nccc4[nH]c(CN5CCOCC5)cc34)cn2)CC1 [Example A52, 4-[[4-[6-(1-isopropyl-3,6-dihydro-2H-pyridin-4-yl)-3-pyridyl]-1H-pyrrolo[3,2-c]pyridin-2-yl]methyl]morpholine] | 71 | 10
10 | CC(C)N1CCN(c2ccc(-c3nccc4[nH]c(CN5CCOCC5)cc34)cn2)CC1 [Example A53, 4-[[4-[6-(4-isopropylpiperazin-1-yl)-3-pyridyl]-1H-pyrrolo[3,2-c]pyridin-2-yl]methyl]morpholine] | 100 | 83
11 | CC(C)N1CCC(n2cc(-c3nccc4[nH]c(CN5CCOCC5)cc34)cn2)CC1 [Example A54, 4-[[4-[1-(1-isopropyl-4-piperidyl)pyrazol-4-yl]-1H-pyrrolo[3,2-c]pyridin-2-yl]methyl]morpholine] | – | 0
12 | CC(C)N1CCN(Cc2ccc(-c3nccc4[nH]c(CN5CCOCC5)cc34)cc2)CC1 [Example A55, 4-[[4-[4-[(4-isopropylpiperazin-1-yl)methyl]phenyl]-1H-pyrrolo[3,2-c]pyridin-2-yl]methyl]morpholine] | 100 | 33
13 | CC(C)N1CCC(Oc2ccc(-c3nccc4[nH]c(CN5CCOCC5)cc34)cc2)CC1 [Example A56, 4-[[4-[4-[(1-isopropyl-4-piperidyl)oxy]phenyl]-1H-pyrrolo[3,2-c]pyridin-2-yl]methyl]morpholine] | – | 64
14 | CC(C)N1CCN(c2cccc(-c3nccc4[nH]c(CN5CCOCC5)cc34)c2)CC1 [Example A57, 4-[[4-[3-(4-isopropylpiperazin-1-yl)phenyl]-1H-pyrrolo[3,2-c]pyridin-2-yl]methyl]morpholine] | 80 | 79
15 | CN1CCN(Cc2ccc(-c3nccc4[nH]c(CN5CCOCC5)cc34)cc2)CC1 [Example A60, 4-[[4-[4-[(4-methylpiperazin-1-yl)methyl]phenyl]-1H-pyrrolo[3,2-c]pyridin-2-yl]methyl]morpholine] | – | 29
16 | CN1CCN(c2cccc(-c3nccc4[nH]c(CN5CCOCC5)cc34)c2)CC1 [Example A61, 4-[[4-[3-(4-methylpiperazin-1-yl)phenyl]-1H-pyrrolo[3,2-c]pyridin-2-yl]methyl]morpholine] | 78 | 74
17 | CN1CCC(Oc2ccc(-c3nccc4[nH]c(CN5CCOCC5)cc34)cc2)CC1 [Example A62, 4-[[4-[4-[(1-methyl-4-piperidyl)oxy]phenyl]-1H-pyrrolo[3,2-c]pyridin-2-yl]methyl]morpholine] | – | 75
18 | CN1CCC(n2cc(-c3nccc4[nH]c(CN5CCOCC5)cc34)cn2)CC1 [Example A63, 4-[[4-[1-(1-methyl-4-piperidyl)pyrazol-4-yl]-1H-pyrrolo[3,2-c]pyridin-2-yl]methyl]morpholine] | – | 0
19 | CC(C)N1CCC(c2ccc(-c3nccc4[nH]c(CN5CCOCC5)cc34)cn2)CC1 [Example A64, 4-[[4-[6-(1-isopropyl-4-piperidyl)-3-pyridyl]-1H-pyrrolo[3,2-c]pyridin-2-yl]methyl]morpholine] | 13 | 4
20 | CC(C)N1CCC(c2ccc(-c3nccc4[nH]c(CN5CCOCC5)cc34)cc2)CC1 [Example A70, 4-[[4-[4-(1-isopropyl-4-piperidyl)phenyl]-1H-pyrrolo[3,2-c]pyridin-2-yl]methyl]morpholine] | 100 | 36
21 | CC(C)N1CCN(c2ccc(-c3nccc4[nH]c(CN5CC(O)C5)cc34)cc2)CC1 [Example A72, 1-[[4-[4-(4-isopropylpiperazin-1-yl)phenyl]-1H-pyrrolo[3,2-c]pyridin-2-yl]methyl]azetidin-3-ol] | 0 | 14

From patent US9643967B2, “Pyrrolo[3,2-c]pyridine derivatives as TLR inhibitors” (TAKEDA PHARMACEUTICAL COMPANY LIMITED, priority 2013, dated 2017)
